In patent publication US20070293475A1, “ARYL AND HETEROARYL TETRAHYDROBENZAZEPINE DERIVATIVES AND THEIR USE FOR TREATING GLAUCOMA” (ALCON MAN[…]., priority 2006, published 2007):

How the values were obtained:
[1] = molecular target: T1, human serotonin receptor clone 5-HT2C (Homo sapiens, UniProt P28335); assay: h5-HT2 functional assay, CHO-K1 aequorin luminescence (5-HT2C); format: cell-based; details: for Emax: CHO-K1, relative to the response of 5-HT, read-out: h5-HT 2C (Emax); for EC50: CHO-K1 cells, aequorin, Gα16, read-out: h5-HT 2C EC50
T1 construct: expressed in transfected cells; host or cells: CHO-K1 cells stably expressing aequorin and Galpha16
T1 sequence (P28335 33-458): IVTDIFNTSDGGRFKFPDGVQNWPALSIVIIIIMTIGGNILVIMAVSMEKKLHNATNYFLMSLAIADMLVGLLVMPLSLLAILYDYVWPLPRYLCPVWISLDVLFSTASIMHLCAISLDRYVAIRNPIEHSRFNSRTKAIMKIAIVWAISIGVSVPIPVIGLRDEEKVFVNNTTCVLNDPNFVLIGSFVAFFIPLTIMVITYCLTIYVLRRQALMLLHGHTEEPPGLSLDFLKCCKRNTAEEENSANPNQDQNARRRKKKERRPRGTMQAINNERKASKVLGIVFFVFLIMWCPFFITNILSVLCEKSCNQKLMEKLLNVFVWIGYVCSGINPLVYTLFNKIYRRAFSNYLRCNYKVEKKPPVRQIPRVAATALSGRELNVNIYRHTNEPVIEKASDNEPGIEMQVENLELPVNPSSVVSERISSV
Protocol: (§1) Functional response at the 5-HT2 receptor subtypes was determined using CHO-K1 cells stably expressing mitochondrially-targeted bioluminescent aequorin, Gα16, and one of either human serotonin receptor clone 5-HT2A, 5-HT2B , or 5-HT2C. Prior to testing, cells were loaded in suspension with coelenterazine for 4-16 hours and directly injected onto different concentrations of the test compound. Light emitted from the cells was measured 20-30 seconds following receptor activation. A luminometer (Hamamatsu, FDSS-6000) was used to record luminescence in response to the test compound. The mean response signal at each of 8-11 different concentrations was integrated to provide an estimation of receptor activation, expressed as the EC50 value. The efficacy of the response (Emax) at the 5-HT2A and 5-HT2B receptors is expressed relative to the response of α-methyl-5-HT under the same assay conditions while the efficacy at 5-HT2C is expressed relative to the response of 5-HT.

[2] = molecular target: T2, human serotonin receptor clone 5-HT2B (Homo sapiens, UniProt P41595); assay: h5-HT2 functional assay, CHO-K1 aequorin luminescence (5-HT2B); format: cell-based; details: for Emax: CHO-K1, relative to the response of α-methyl-5-HT, read-out: h5-HT 2B (Emax); for EC50: CHO-K1 cells, aequorin, Gα16, read-out: h5-HT 2B EC50
T2 construct: expressed in transfected cells; host or cells: CHO-K1 cells stably expressing aequorin and Galpha16
Protocol: as §1

[3] = molecular target: T3, recombinant rat 5-HT2C receptor (Rattus norvegicus, UniProt P08909); assay: r5-HT2C functional assay: FLIPR, SR3T3 cells; format: cell-based; details: for EC50: FLIPR, SR3T3 cells expressing recombinant rat 5-HT2C, read-out: r5-HT 2C EC50; for Emax: SR-3T3, percentage of maximum 5-HT-induced response, SR3T3 cells, read-out: r5-HT 2C (Emax)
T3 construct: expressed in transfected cells; host or cells: SR3T3 cells
T3 sequence (P08909 33-460): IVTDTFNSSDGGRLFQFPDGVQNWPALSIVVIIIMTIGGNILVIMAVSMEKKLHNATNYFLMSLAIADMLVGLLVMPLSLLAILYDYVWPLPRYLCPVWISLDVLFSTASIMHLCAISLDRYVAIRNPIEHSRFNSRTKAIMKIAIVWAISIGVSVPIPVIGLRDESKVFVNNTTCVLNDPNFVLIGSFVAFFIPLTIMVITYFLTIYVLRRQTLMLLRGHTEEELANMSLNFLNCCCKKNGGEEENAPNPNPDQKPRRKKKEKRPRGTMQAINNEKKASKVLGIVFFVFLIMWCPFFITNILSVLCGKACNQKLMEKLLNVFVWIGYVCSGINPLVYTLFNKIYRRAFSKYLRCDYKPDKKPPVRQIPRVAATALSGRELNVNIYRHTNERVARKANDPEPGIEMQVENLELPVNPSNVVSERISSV
Protocol: (§2) The receptor-mediated mobilization of intracellular calcium ([Ca^2+]i) was studied using the Fluorescence Imaging Plate Reader (FLIPR) instrument. Rat vascular smooth muscle cells, A7r5, were grown in a normal media of DMEM/10% FBS and 10 μg/ml gentamycin. Confluent cell monolayers were trypsinized, pelleted, and re-suspended in normal media. Cells were seeded in a 50 μL volume at a density of 20,000 cells per well in a black wall, 96-well tissue culture plate and grown for 2 days. On the day of the experiment, one vial of FLIPR Calcium Assay Kit dye was re-suspended in 50 ml of a FLIPR buffer consisting of Hank's Balanced Salt Solution (HBSS), 20 mM HEPES, and 2.5 mM probenecid, pH 7.4. Cells were loaded with the calcium-sensitive dye by addition of an equal volume (50 μl) to each well of the 96-well plate and incubated with dye for 1 h at 23° C. Typically, test compounds were stored at […] in 50% DMSO/50% Ethanol solvent. Compounds were diluted 1:50 in 20% DMSO/20% Ethanol. For dose-response experiments, compounds were diluted 1:50 in FLIPR buffer and serially diluted 1:10 to give a 5- or 8-point dose-response curve.
(§3) At the beginning of an experimental run, a signal test was performed to check the basal fluorescence signal from the dye-loaded cells and the uniformity of the signal across the plate. The basal fluorescence was adjusted between 8000-12000 counts by modifying the exposure time, the camera F-stop, or the laser power. The instrument settings for a typical assay were as follows: laser power 0.3-0.6 W, camera F-stop F/2, and exposure time 0.4 sec. An aliquot (25 μl) of the test compound was added to the existing 100 μl dye-loaded cells at a dispensing speed of 50 μl/sec. Fluorescence data were collected in real-time at 1.0 sec intervals for the first 60 sec and at 6.0 sec intervals for an additional 120 sec. Responses were measured as peak fluorescence intensity minus basal and where appropriate were expressed as a percentage of a maximum 5-HT-induced response.
r5-HT2C Functional Assay: FLIPR
This assay were performed as for the r5-HT2A receptor above, except that SR3T3 cells expressing the recombinant rat 5-HT2C receptor were utilized.

[4] = molecular target: T4, human serotonin receptor clone 5-HT2A (Homo sapiens, UniProt P28223); assay: h5-HT2 functional assay, CHO-K1 aequorin luminescence (5-HT2A); format: cell-based; details: for Emax: CHO-K1, relative to the response of α-methyl-5-HT, read-out: h5-HT 2A (Emax); for EC50: CHO-K1 cells, aequorin, Gα16, read-out: h5-HT 2A EC50
T4 construct: expressed in transfected cells; host or cells: CHO-K1 cells stably expressing aequorin and Galpha16
Protocol: as §1

r5-HT2A = molecular target: T5, r5-HT2A (Rattus norvegicus, UniProt P14842); assay: r5-HT2A functional assay: FLIPR, intracellular calcium mobilization in A7r5 cells; format: cell-based; details: for EC50: FLIPR, rat A7r5 vascular smooth muscle cells, read-out: r5-HT 2A EC50; for Emax: percentage of maximum 5-HT-induced response, A7r5 cells, read-out: r5-HT 2A (Emax)
T5 construct: endogenous in cells; host or cells: A7r5 rat vascular smooth muscle cells
Protocol: r5-HT2A Functional Assay: FLIPR
Rat Vascular Smooth Muscle Cells
as §2, §3

[5] = system: Lasered (Hypertensive) Eyes of Conscious Cynomolgus Monkeys; assay: Acute IOP response in lasered (hypertensive) eyes of conscious cynomolgus monkeys; format: in vivo; details: for IOP change (mmHg): value in parentheses
Protocol: Acute IOP Response in Lasered (Hypertensive) Eyes of Conscious Cynomolgus Monkeys
Intraocular pressure (IOP) can be determined with an Alcon Pneumatonometer after light corneal anesthesia with 0.1% proparacaine. Eyes are washed with saline after each measurement. After a baseline IOP measurement, test compound is instilled in one 30 μL aliquot to the right eyes only of nine cynomolgus monkeys. Vehicle is instilled in the right eyes of six is additional animals. Subsequent IOP measurements are taken at 1, 3, and 6 hours.
The above method was used to determine the IOP lowering efficacy of Compound 1. All eyes were pretreated with 1 drop of 0.5% proparacaine to address discomfort.

[6] = dose 100 μg topical, 1 hr, baseline IOP 38.3 mmHg
[7] = dose 100 μg topical, 3 hr, baseline IOP 38.3 mmHg
[8] = dose 100 μg topical, 6 hr, baseline IOP 38.3 mmHg
[9] = dose 150 μg topical, 1 hr, baseline IOP 40.4 mmHg
[10] = dose 150 μg topical, 3 hr, baseline IOP 40.4 mmHg
[11] = dose 150 μg topical, 6 hr, baseline IOP 40.4 mmHg

T5 sequence (P14842 whole entry): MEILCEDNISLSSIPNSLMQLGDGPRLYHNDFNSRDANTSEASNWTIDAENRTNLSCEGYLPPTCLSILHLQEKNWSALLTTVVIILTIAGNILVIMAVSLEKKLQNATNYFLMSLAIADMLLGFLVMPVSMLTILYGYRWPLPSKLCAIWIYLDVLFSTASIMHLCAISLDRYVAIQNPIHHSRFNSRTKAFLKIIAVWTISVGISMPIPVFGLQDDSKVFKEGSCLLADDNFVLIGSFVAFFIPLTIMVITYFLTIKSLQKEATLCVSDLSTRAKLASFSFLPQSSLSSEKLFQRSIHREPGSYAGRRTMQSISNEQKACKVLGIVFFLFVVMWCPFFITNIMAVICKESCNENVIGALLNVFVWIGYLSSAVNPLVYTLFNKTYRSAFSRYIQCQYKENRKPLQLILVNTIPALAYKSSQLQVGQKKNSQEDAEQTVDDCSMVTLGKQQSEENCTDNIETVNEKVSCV
T4 sequence (P28223 whole entry): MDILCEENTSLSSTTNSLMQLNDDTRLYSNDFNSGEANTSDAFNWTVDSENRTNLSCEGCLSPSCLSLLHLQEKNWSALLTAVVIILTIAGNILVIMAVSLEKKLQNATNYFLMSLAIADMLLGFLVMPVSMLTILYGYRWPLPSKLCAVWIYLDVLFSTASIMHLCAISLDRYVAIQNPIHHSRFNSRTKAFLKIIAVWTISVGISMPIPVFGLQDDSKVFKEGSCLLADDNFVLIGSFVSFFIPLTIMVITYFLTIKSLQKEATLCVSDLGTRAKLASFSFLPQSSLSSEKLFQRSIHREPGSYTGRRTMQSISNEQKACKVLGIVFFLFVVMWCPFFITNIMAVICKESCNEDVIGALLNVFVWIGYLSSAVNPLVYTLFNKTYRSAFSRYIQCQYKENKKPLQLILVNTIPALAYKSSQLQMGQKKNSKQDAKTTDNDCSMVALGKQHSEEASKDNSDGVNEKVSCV
T2 sequence (P41595 whole entry): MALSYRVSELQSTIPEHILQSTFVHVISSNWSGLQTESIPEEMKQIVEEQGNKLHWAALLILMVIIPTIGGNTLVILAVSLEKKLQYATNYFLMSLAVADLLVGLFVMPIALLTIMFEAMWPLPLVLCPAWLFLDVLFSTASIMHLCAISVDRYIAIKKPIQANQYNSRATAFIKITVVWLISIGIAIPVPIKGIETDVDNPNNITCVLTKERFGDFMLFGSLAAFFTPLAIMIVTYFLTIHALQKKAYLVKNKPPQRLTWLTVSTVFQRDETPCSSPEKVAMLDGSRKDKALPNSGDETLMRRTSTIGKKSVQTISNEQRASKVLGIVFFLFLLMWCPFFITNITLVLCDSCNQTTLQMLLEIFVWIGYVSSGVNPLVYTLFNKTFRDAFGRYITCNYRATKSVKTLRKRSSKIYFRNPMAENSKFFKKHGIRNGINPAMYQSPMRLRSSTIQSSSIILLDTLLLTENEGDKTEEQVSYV

Row | SMILES | Emax [1] [%] | EC50 [1] [nM] | Emax [2] [%] | EC50 [2] [nM] | EC50 [3] [nM] | Emax [3] [%] | Emax [4] [%] | EC50 [4] [nM] | EC50 (r5-HT2A) [nM] | Emax (r5-HT2A) [%] | also measured
1 | COc1cccc(Cc2ccc3c(c2)CCNCC3)c1 [Example 1, 7-(3-Methoxy-benzyl)-2,3,4,5-tetrahydro-1H-benzo[d]azepine] | 105 | 1.1 | 87 | 390 | 82 | 100 | 102 | 1.5 | 386 | 39 | % IOP change [5, 6]: −16.5%; IOP change (mmHg) [5, 6]: (6.6) mmHg; % IOP change [5, 7]: −33.1%; IOP change (mmHg) [5, 7]: (13.1) mmHg; % IOP change [5, 8]: −42.5%; IOP change (mmHg) [5, 8]: (16.8) mmHg; % IOP change [5, 9]: −15.6%; IOP change (mmHg) [5, 9]: (6.1) mmHg; % IOP change [5, 10]: −29.5%; IOP change (mmHg) [5, 10]: (12.3) mmHg; % IOP change [5, 11]: −37.8%; IOP change (mmHg) [5, 11]: (15.6) mmHg
2 | Oc1cccc(OCc2ccc3c(c2)CCNCC3)c1 [Example 7, 3-(2,3,4,5-tetrahydro-1H-3-benzazepin-7-ylmethoxy)phenol] | – | – | – | – | 65 | 92 | – | – | 440 | 40 | –
3 | COc1cc(Cc2ccc3c(c2)CCNCC3)cc(OC)c1 [Example 3, 7-(3,5-Dimethoxy-benzyl)-2,3,4,5-tetrahydro-1H-benzo[d]azepine] | 105 | 20 | 6 | > 10000 | 629 | 70 | 104 | 16.9 | > 10000 | – | –
4 | COc1cccc(COc2cc3c(cc2C)CCNCC3)c1 [Example 8, 7-[(3-methoxybenzyl)oxy]-8-methyl-2,3,4,5-tetrahydro-1H-3-benzazepine] | 101 | 4.5 | 63 | 230 | 250 | 102 | 102 | 2.4 | 1920 | 48 | –
5 | Oc1cccc(Cc2ccc3c(c2)CCNCC3)c1 [Example 2, 3-(2,3,4,5-Tetrahydro-1H-benzo[d]azepin-7-ylmethyl)-phenol] | 109 | 8.8 | 35 | 1240 | 120 | 100 | 98 | 31 | > 1000 | – | –
6 | COc1cccc(OCc2ccc3c(c2)CCNCC3)c1 [Example 6, 7-[(3-methoxyphenoxy)methyl]-2,3,4,5-tetrahydro-1H-3-benzazepine] | 107 | 3.9 | 61 | 417 | 91 | 89 | 105 | 0.4 | 69 | 35 | –
